Source: ChEMBL document CHEMBL3286179, “Discovery of the Fibrinolysis Inhibitor AZD6564, Acting via Interference of a Protein-Protein Interaction” (ACS Med Chem Lett, 2014)

How the values were obtained:
[1] = Drug excretion in dog urine; format: ADME, Canis lupus familiaris; settings: read-out: Drug excretion
[2] = Total clearance in dog at 3 umol/kg, iv and 6 umol/kg, po; format: ADME, organism-based, Canis lupus familiaris; settings: in vivo
[3] = Renal clearance in rat at 5 umol/kg, iv and 20 umol/kg, po; format: ADME, organism-based, Kidney; settings: in vivo
[4] = Drug excretion in rat urine; format: ADME; settings: in vivo
[5] = Renal clearance in dog at 3 umol/kg, iv and 6 umol/kg, po; format: ADME, organism-based, Canis lupus familiaris, Kidney; settings: in vivo
[6] = Oral bioavailability in dog at 6 umol/kg; format: ADME, organism-based, Canis lupus familiaris; settings: in vivo, at 6 µmol/kg
[7] = Metabolic stability in human liver microsomes; format: ADME; settings: read-out: Stability
Hepatocyte = experiment: Metabolic stability in human hepatocytes measured per 10^6 cells; format: ADME, cell-based
[8] = Total clearance in rat at 5 umol/kg, iv and 20 umol/kg, po; format: ADME, organism-based; settings: in vivo
[9] = Drug metabolism in human hepatocytes assessed as glucuronidation on isoxazolone ring; format: ADME, cell-based, Hepatocyte
[10] = Oral bioavailability in rat at 20 umol/kg; format: ADME, organism-based; settings: in vivo, at 20 µmol/kg
[11] = Dissociation constant, pKa of the compound; format: physicochemical

Row | SMILES | dose excreted [1] [%] | clearance [2] [mL/min/kg] | CL renal [3] [mL/min/kg] | Drug excretion [4] [%ID] | CL renal [5] [mL/min/kg] | bioavailability [6] [%] | microsomal CLint [7] [µL/min/mg] | Stability (Hepatocyte) [µL/min] | clearance [8] [mL/min/kg] | Drug metabolism [9] | bioavailability [10] [%] | pKa [11]
1 | O=c1cc([C@H]2CCN[C@@H](CCc3ccccc3)C2)o[nH]1 | – | 1.8 | 6 | 25 | 0.12 | 59 | < 5 | < 1 | 24 | metabolite_detected | 19 | –
2 | O=c1cc([C@@H]2CCN[C@H](Cc3ccccc3)C2)o[nH]1 | – | – | – | – | – | – | – | – | – | – | – | 4.4
3 | O=c1cc([C@H]2CCN[C@H](Cc3ccccc3)C2)o[nH]1 | – | – | – | – | – | – | – | – | – | – | – | 4.9

Other lines, results leading:

Row | dose excreted [1] [%] | clearance [2] [mL/min/kg] | CL renal [3] [mL/min/kg] | Drug excretion [4] [%ID] | CL renal [5] [mL/min/kg] | bioavailability [6] [%] | microsomal CLint [7] [µL/min/mg] | Stability (Hepatocyte) [µL/min] | clearance [8] [mL/min/kg] | Drug metabolism [9] | bioavailability [10] [%] | pKa [11] | SMILES
4 | 70 | 1.1 | 6 | 45 | 0.8 | 53 | < 5 | < 1 | 13 | metabolite_detected | 39 | – | CC(C)(C)C[C@H]1C[C@@H](c2cc(=O)[nH]o2)CCN1
5 | 7 | 2.9 | 11 | 25 | 0.2 | 73 | < 5 | < 1 | 46 | metabolite_detected | 33 | – | O=c1cc([C@H]2CCN[C@@H](Cc3ccccc3)C2)o[nH]1
